In patent US5919771A, “Urea and thiourea derivatives of glycopeptides” (Eli Lilly and Company, priority 1998, dated 1999):

Assays:
Format in all cases: cell-based
[1] = system: Streptococcus pyogenes C203; assay: MIC, standard broth micro-dilution assay, SPY C203
Description: (§1) The antibacterial efficacy of the present compounds is illustrated by Table II. The minimal inhibitory concentrations (MICs) were determined using a standard broth micro-dilution assay.

[2] = system: Staphylococcus aureus 447; assay: MIC, standard broth micro-dilution assay, SA 447
Description: as §1

[3] = system: Staphylococcus aureus 489; assay: MIC, standard broth micro-dilution assay, SA 489
Description: as §1

[4] = system: Streptococcus pneumoniae P1; assay: MIC, standard broth micro-dilution assay, SPN P1
Description: as §1

[5] = system: Staphylococcus haemolyticus 105; assay: MIC, standard broth micro-dilution assay, SH 105
Description: as §1

[6] = system: Enterococcus faecium and faecalis (RESISTANT); conditions: geometric mean of 4-6 isolates
Description: as §1

[7] = system: Enterococcus faecium and faecalis (SENSITIVE); conditions: geometric mean of 4-6 isolates
Description: as §1

[8] = system: Staphylococcus epidermidis 270; assay: MIC, standard broth micro-dilution assay, SE 270
Description: as §1

[9] = system: Staphylococcus haemolyticus 415; assay: MIC, standard broth micro-dilution assay, SH 415
Description: as §1

[10] = system: Staphylococcus aureus 446; assay: MIC, standard broth micro-dilution assay, SA 446
Description: as §1

CCCCc1ccc(NC(=S)N(C)C(CC(C)C)C(=O)NC2C(=O)NC(CC(N)=O)C(=O)NC3C(=O)NC4C(=O)NC(C(=O)NC(C(=O)O)c5cc(O)cc(O)c5-c5cc4ccc5O)C(OC4CC(C)(N)C(O)C(C)O4)c4ccc(c(Cl)c4)Oc4cc3cc(c4OC3OC(CO)C(O)C(O)C3OC3CC(C)(N)C(O)C(C)O3)Oc3ccc(cc3Cl)C2O)cc1 (stereo not drawn) [Example 17, N^LEU -((p-n-BUTYLPHENYL)-THIOCARBAMOYL)A82846B]
Minimal Inhibitory Concentration (MIC) SPY C203 [1]: 0.25
Minimal Inhibitory Concentration (MIC) SA 447 [2]: 1
Minimal Inhibitory Concentration (MIC) SA 489 [3]: 1
Minimal Inhibitory Concentration (MIC) SPN P1 [4]: ≤ 0.06
Minimal Inhibitory Concentration (MIC) SH 105 [5]: 4
Minimal Inhibitory Concentration (MIC) RESISTANT [6]: > 128
Minimal Inhibitory Concentration (MIC) SENSITIVE [7]: 6.1
Minimal Inhibitory Concentration (MIC) SE 270 [8]: 2
Minimal Inhibitory Concentration (MIC) SH 415 [9]: 32
Minimal Inhibitory Concentration (MIC) SA 446 [10]: 2

CC(C)CC(C(=O)NC1C(=O)NC(CC(N)=O)C(=O)NC2C(=O)NC3C(=O)NC(C(=O)NC(C(=O)O)c4cc(O)cc(O)c4-c4cc3ccc4O)C(OC3CC(C)(N)C(O)C(C)O3)c3ccc(c(Cl)c3)Oc3cc2cc(c3OC2OC(CO)C(O)C(O)C2OC2CC(C)(N)C(O)C(C)O2)Oc2ccc(cc2Cl)C1O)N(C)C(=S)Nc1ccccc1 (stereo not drawn) [Example 1, N^LEU -(PHENYLTHIOCARBAMOYL)A82846B]
Minimal Inhibitory Concentration (MIC) SPY C203 [1]: 2
Minimal Inhibitory Concentration (MIC) SA 447 [2]: 8
Minimal Inhibitory Concentration (MIC) SA 489 [3]: 4
Minimal Inhibitory Concentration (MIC) SPN P1 [4]: 2
Minimal Inhibitory Concentration (MIC) SH 105 [5]: 64
Minimal Inhibitory Concentration (MIC) RESISTANT [6]: > 128
Minimal Inhibitory Concentration (MIC) SENSITIVE [7]: 16
Minimal Inhibitory Concentration (MIC) SE 270 [8]: 8
Minimal Inhibitory Concentration (MIC) SH 415 [9]: > 64
Minimal Inhibitory Concentration (MIC) SA 446 [10]: 8

CC(C)CC(C(=O)NC1C(=O)NC(CC(N)=O)C(=O)NC2C(=O)NC3C(=O)NC(C(=O)NC(C(=O)O)c4cc(O)cc(O)c4-c4cc3ccc4O)C(OC3CC(C)(N)C(O)C(C)O3)c3ccc(c(Cl)c3)Oc3cc2cc(c3OC2OC(CO)C(O)C(O)C2OC2CC(C)(NCc3ccc(Cl)cc3)C(O)C(C)O2)Oc2ccc(cc2Cl)C1O)N(C)C(=S)Nc1cccc2ccccc12 (stereo not drawn) [Example 6, N^LEU -(1-NAPHTHYLTHIOCARBAMOYL)-N^DISACC -(p-CHLOROBENZYL)A82846B]
Minimal Inhibitory Concentration (MIC) SPY C203 [1]: ≤ 0.06
Minimal Inhibitory Concentration (MIC) SA 447 [2]: 4
Minimal Inhibitory Concentration (MIC) SA 489 [3]: 16
Minimal Inhibitory Concentration (MIC) SPN P1 [4]: ≤ 0.06
Minimal Inhibitory Concentration (MIC) SH 105 [5]: 4
Minimal Inhibitory Concentration (MIC) RESISTANT [6]: 128
Minimal Inhibitory Concentration (MIC) SENSITIVE [7]: 5
Minimal Inhibitory Concentration (MIC) SE 270 [8]: 64
Minimal Inhibitory Concentration (MIC) SH 415 [9]: 8
Minimal Inhibitory Concentration (MIC) SA 446 [10]: 2
